Measurements from US7776858B2, “Methods of treatment of chronic pain using eszopiclone” (Sepracor Inc., priority 2004, dated 2010).

Assays:
[1] = system: benzodiazepine receptor complex; conditions: cited from earlier work
[2] = system: mice; assay: Antimuscarinic activity in vivo: mydriasis; conditions: maximum dose 100 mg/kg, p.o.
Method: (§1) Eszopiclone was evaluated for antimuscarinic activity in vivo.

[3] = system: conscious dogs; assay: Dose escalation safety study, cardiovascular and respiratory parameters after acute intravenous administration; conditions: acute intravenous, 3, 5 and 12 mg/kg
Method: To establish the safety of eszopiclone, a dose escalation study was carried out. Cardiovascular and respiratory parameters were evaluated in conscious dogs following acute intravenous administration of (R)-, (S)- or racemic zopiclone at three doses (3, 5 and 12 mg/kg).

[4] = system: mice; assay: Antagonism of oxotremorine induced salivation; type: in vivo; conditions: doses up to 300 mg/kg, p.o.
Method: as §1

CN1CCN(C(=O)OC2c3nccnc3C(=O)N2c2ccc(Cl)cn2)CC1 (racemic) [racemic zopiclone, zopiclone]
binding to the benzodiazepine receptor complex [1]: binds to the benzodiazepine receptor complex
mydriasis [2]: did not produce mydriasis
Blood gases and blood chemistries (pH, pCO2, pO2, hematocrit, and lactate) [3]: remained unaffected
cardiotoxicity by electrocardiogram (ECG) [3]: No evidence of cardiotoxicity
effect on blood pressure [3]: dose dependent, transient decreases
effect on heart rate [3]: compensatory increase
antagonism of oxotremorine induced salivation [4]: neither (R)-, (S)-, nor racemic zopiclone significantly antagonized
